Laboratory results as given in ChEMBL document CHEMBL1201862, “PubChem BioAssay data set” (2004).
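Briefly, cells in 96-well plates were exposed to five compound concentrations for 48 h, and endpoints were estimated by linear interpolation. GI50 marks 50% less growth.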 Calls of active or inactive are those of the source. Rule as the data show it: active = GI50 up to about 1.1 µM and inactive = higher. Where a SMILES comes first, the peptide text is derived from it. [ ]: non-standard residue; d: D form. pGlu = O=C1CC[CH](C(=O)O)N1

Tests used:
Assay in all cases: growth of human tumour cells (NCI), 48 h
[1] = system: 786-0
[2] = system: SK-MEL-28
[3] = system: PC-3
[4] = system: EKVX
[5] = system: U-251
[6] = system: SK-MEL-5
[7] = system: NCI-H522
[8] = system: SF-295
[9] = system: HT-29
[10] = system: BT-549
[11] = system: LOX IMVI
[12] = system: M14
[13] = system: UO-31
[14] = system: NCI-H460
[15] = system: A549
[16] = system: RXF 393
[17] = system: T47D
[18] = system: ACHN
[19] = system: Hs-578T
[20] = system: NCI-H23

Measured: GI50

C[C@]12CC[C@@H]3c4ccc(O)cc4CC[C@H]3[C@@H]1CC[C@@H]2OP(=O)(O)O
inactive: [1] > 100 µM | [2] > 100 µM | [3] > 100 µM | [4] > 100 µM | [5] > 100 µM | [6] > 100 µM | [7] > 100 µM | [8] > 100 µM | [9] > 100 µM | [10] > 100 µM | [11] > 100 µM | [12] > 100 µM | [13] > 100 µM | [14] > 100 µM | [15] > 100 µM | [16] > 100 µM | [17] > 100 µM | [18] > 100 µM | [19] > 100 µM | [20] > 100 µM

CC(NC(=O)C1CCC(=O)N1)C(=O)N1CCCC1C(N)=O (stereo not drawn) ([pGlu]-Ala-Pro-NH2; configuration not given here)
inactive: [1] 61.7 µM | [2] > 100 µM | [3] > 100 µM | [4] > 100 µM | [5] > 100 µM | [6] > 100 µM | [7] > 100 µM | [8] > 100 µM | [9] > 100 µM | [10] > 100 µM | [11] > 100 µM | [12] > 100 µM | [13] > 100 µM | [14] > 100 µM | [15] > 100 µM | [16] > 100 µM | [17] > 100 µM | [18] > 100 µM | [19] > 100 µM | [20] > 100 µM
